Assay results as given in patent US20250122202A1, “EGFR INHIBITOR, PREPARATION METHOD THEREFOR AND USE THEREOF” (SHANDONG NEW TIME PHARMACEUTICAL CO., LTD., priority 2021, published 2025).
Read-outs that look alike come from different tables or passages of the source.

Columns and labels:
[1] = system: KC-0178:NCI-1975 EGFR-L858R/T790M/C797S; assay: Cell proliferation inhibition experiment (CCK-8), KC-0178; assay type: cell-based; details: Homo sapiens, 72 h
Description: (§1) Inhibition rate %=[(A0−AS)/(A0−AC)]×100%.

[2] = biological target: EGFR-Del19/T790M/C797S kinase (Homo sapiens, UniProt P00533, C797S/T790M, form not given); assay: In-vitro enzyme experiment 2 (HTRF kinase assay), EGFR Del19 T790M C797S; assay type: biochemical; details: read-out: enzyme inhibition IC50 (nM) EGFR-Del19/T790M/C797S
Chain of EGFR-Del19/T790M/C797S kinase (P00533 25-1210 T790M/C797S limits assumed, form open): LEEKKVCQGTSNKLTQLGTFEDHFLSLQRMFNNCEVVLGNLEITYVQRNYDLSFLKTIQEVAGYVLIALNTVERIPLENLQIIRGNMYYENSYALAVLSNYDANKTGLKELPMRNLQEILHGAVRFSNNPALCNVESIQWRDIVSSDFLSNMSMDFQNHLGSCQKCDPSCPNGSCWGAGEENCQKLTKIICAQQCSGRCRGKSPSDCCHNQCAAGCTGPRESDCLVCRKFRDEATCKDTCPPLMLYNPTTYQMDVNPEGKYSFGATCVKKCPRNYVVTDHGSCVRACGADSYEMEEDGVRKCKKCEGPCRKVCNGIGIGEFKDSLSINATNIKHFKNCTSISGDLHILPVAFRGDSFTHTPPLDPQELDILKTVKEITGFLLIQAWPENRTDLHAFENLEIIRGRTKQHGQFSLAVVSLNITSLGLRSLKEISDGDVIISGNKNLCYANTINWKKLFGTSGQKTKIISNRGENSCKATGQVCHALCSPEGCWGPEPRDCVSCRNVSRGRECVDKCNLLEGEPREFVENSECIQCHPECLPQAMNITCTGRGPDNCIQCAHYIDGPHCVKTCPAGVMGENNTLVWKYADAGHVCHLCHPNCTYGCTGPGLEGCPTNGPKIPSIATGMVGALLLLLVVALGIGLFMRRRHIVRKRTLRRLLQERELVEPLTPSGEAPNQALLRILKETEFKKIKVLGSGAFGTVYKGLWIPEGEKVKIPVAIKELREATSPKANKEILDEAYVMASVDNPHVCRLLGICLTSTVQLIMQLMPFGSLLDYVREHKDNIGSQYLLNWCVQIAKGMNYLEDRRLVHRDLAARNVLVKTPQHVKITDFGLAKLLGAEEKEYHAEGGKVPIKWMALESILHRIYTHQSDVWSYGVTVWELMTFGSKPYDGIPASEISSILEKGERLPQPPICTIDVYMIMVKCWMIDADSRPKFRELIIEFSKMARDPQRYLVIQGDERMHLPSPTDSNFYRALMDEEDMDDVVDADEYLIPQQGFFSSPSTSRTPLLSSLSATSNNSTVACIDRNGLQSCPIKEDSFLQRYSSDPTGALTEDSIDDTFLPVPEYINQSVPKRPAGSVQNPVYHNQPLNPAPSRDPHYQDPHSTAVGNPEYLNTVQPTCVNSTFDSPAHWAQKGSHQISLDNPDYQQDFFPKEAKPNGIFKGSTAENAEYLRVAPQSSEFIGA
Description: The specific experiment was as follows: • 1. […] Test method of activity of compound • a) a compound diluent was transferred to each well of an assay plate (784075, Greiner) using Echo 550; • b) the assay plate was sealed and centrifuged at 1,000 g for 1 min; • c) 2×EGFR (D770-N771 ins NPG T790M) was prepared in a 1× kinase buffer; • d) 5 μl of the 2×EGFR (D770-N771 ins NPG T790M) was added to a 384-well assay plate (784075, Greiner); • e) the assay plate was centrifuged at 1,000 g for 30 s and incubated at room temperature for 10 min; • f) 2× TK-substrate-biotin (2 μM) and ATP were added to the 1× kinase buffer and mixed; • g) the reaction was started after adding 5 μl of the TK-substrate-biotin (2 μM) and ATP mixture; • h) the assay plate was centrifuged at 1,000 g for 30 s; and the assay plate was sealed and incubated at room temperature for 40 min; • i) 4× Sa-XL 665 was prepared in an HTRF detection buffer; • j) 5 μl of the Sa-XL 665 and 5 μl of a TK-antibody-cryptate were added to each well of the assay plate; • k) the assay plate was centrifuged at 1,000 g for 30 s and incubated at room temperature for 1 h; and • l) fluorescence signals at 615 nm (cryptate) and 665 nm (XL665) were read on an Envision 2104 reader. • 3. Data analysis • 3.1 Calculation of ratio (665/615 nm) of each well • 3.2 Calculation of inhibition rate
[formula] • 3.3 Calculation of IC50 value of compound and drawing dose-effect curve of compound • IC50 values were calculated using GraphPad 6.0 by applying a non-linear regression curve (dose-effect relationship-variable slope) of the logarithm of the compound concentration versus the inhibition rate.
The preparation of the kinase buffer, the test method of the activity of the compound, and the data analysis referred to the relevant definitions in example 117, wherein step c) of the test method of the activity of the compound was replaced by preparing 2×EGFR Del19 T790M C797S in the 1× kinase buffer.

[3] = system: KC-1474:PC-9 EGFR-Del19/T790M/C797S; assay: Cell proliferation inhibition experiment (CCK-8), KC-1474; assay type: cell-based; details: Homo sapiens, 72 h
Description: as §1

[4] = system: H1975 EGFR-L858R/T790M; assay: Cell proliferation inhibition experiment (CCK-8), H1975; assay type: cell-based; details: Homo sapiens, NCI-H1975, 72 h
Description: as §1

[5] = system: PC-9 EGFR-Del19; assay: Cell proliferation inhibition experiment (CCK-8), PC-9; assay type: cell-based; details: Homo sapiens, 72 h
Description: as §1

[6] = system: A549 EGFR-WT; assay: Cell proliferation inhibition experiment (CCK-8), A549; details: Homo sapiens, A549, 72 h
[7] = read-out: cell proliferation inhibition IC50 (μM) A549, 72 h, CCK-8, Table 5 numeric
[8] = read-out: cell proliferation inhibition IC50 (μM) A549, 72 h, CCK-8
[9] = read-out: cell proliferation inhibition IC50 (μM) A549

| IC50 [2] | IC50 [3] | SMILES | IC50 [1] | also measured |
| --- | --- | --- | --- | --- |
| 100 to 600 nM |  | CO[C@H]1CC[C@H](Nc2nc(Nc3ccc(N4CCN(C)CC4)cc3)nc3[nH]cc(C(=O)c4ccc(F)cc4)c23)CC1 [Example 73] |  |  |
| 10 to 100 nM | < 0.1 µM | CN1CCN(c2ccc(Nc3nc(N[C@H]4CC[C@H](CO)CC4)c4c(C(=O)c5ccc(F)cc5)c[nH]c4n3)cc2F)CC1 [Example 78] | 1 to 2 µM | IC50 [4]: 0.1 to 1 µM; IC50 [5]: < 0.1 µM |
| 100 to 600 nM |  | O=C(c1ccc(F)c(F)c1F)c1c[nH]c2nc(Nc3ccc(N4CCOCC4)cc3)nc(N[C@H]3CC[C@H](CO)CC3)c12 [Example 108] |  |  |
| 10 to 100 nM |  | O=C(c1ccc(F)cc1)c1c[nH]c2nc(Nc3ccc(N4CCOCC4)cc3)nc(N[C@@H]3CC[C@@H](CO)OC3)c12 [Example 94] |  |  |
| 100 to 600 nM |  | O=C(c1ccccc1)c1c[nH]c2nc(Nc3ccc(N4CCOCC4)cc3)nc(N[C@H]3CC[C@H](CO)CC3)c12 [Example 98] |  |  |
| 100 to 600 nM |  | CN1CCN(c2ccc(Nc3nc(NC4(CO)CCCC4)c4c(C(=O)c5ccc(F)cc5)c[nH]c4n3)cc2)CC1 [Example 11] |  |  |
| 100 to 600 nM |  | COc1nn(C)cc1Nc1nc(N[C@H]2CC[C@H](CO)CC2)c2c(C(=O)c3ccc(F)cc3)c[nH]c2n1 [Example 112] |  |  |
| 100 to 600 nM |  | CN1CCN(c2ccc(Nc3nc(NC4CCCCC4)c4c(C(=O)c5ccc(F)cc5)c[nH]c4n3)cc2)CC1 [Example 41] |  |  |
| 10 to 100 nM |  | CN1CCN(c2ccc(Nc3nc(NC4(CO)CC4)c4c(C(=O)c5ccc(F)cc5)c[nH]c4n3)cc2)CC1 [Example 10] |  |  |
| 100 to 600 nM |  | CN1CCN(c2ccc(Nc3nc(N[C@H]4CCOC4)c4c(C(=O)c5ccc(F)cc5)c[nH]c4n3)cc2)CC1 [Example 67] |  |  |
| 100 to 600 nM |  | CN1CCN(c2ccc(Nc3nc(N[C@@H]4CCN(S(C)(=O)=O)C4)c4c(C(=O)c5ccc(F)cc5)c[nH]c4n3)cc2)CC1 [Example 49] |  |  |
|  | 0.1 to 1 µM | C=CC(=O)Nc1cccc(Oc2nc(Nc3ccc(N4CCN(C)CC4)c(F)c3)nc3[nH]ccc23)c1 [Avitinib, reference compound] | 1 to 2 µM | IC50 [6, 7]: 1.06 µM |

Second part, the compound before the results:

| SMILES | IC50 [2] | IC50 [3] | IC50 [1] | also measured |
| --- | --- | --- | --- | --- |
| CN1CCN(c2ccc(Nc3nc(N[C@@H]4CC[C@@H](CO)OC4)c4c(C(=O)c5ccc(F)cc5)c[nH]c4n3)cc2)CC1 [Example 95] | 10 to 100 nM | 0.1 to 1 µM | < 0.1 µM |  |
| CN1CCC(Nc2nc(Nc3ccc(N4CCN(C)CC4)cc3)nc3[nH]cc(C(=O)c4ccc(F)cc4)c23)CC1 [Example 85] | 100 to 600 nM |  |  |  |
| CN1CCN(c2ccc(Nc3nc(N[C@H]4CCCOC4)c4c(C(=O)c5ccc(F)cc5)c[nH]c4n3)cc2)CC1 [Example 57] | 100 to 600 nM |  |  |  |
| CN1CCN(c2ccc(Nc3nc(OC4CCOCC4)c4c(C(=O)c5ccc(F)cc5)c[nH]c4n3)cc2)CC1 [Example 84] | 100 to 600 nM |  |  |  |
| O=C(c1ccc(F)cc1Cl)c1c[nH]c2nc(Nc3ccc(N4CCOCC4)cc3)nc(N[C@H]3CC[C@H](CO)CC3)c12 [Example 105] |  |  |  | IC50 [6, 7]: 0.29 µM |
| CC(C)N1CCC(Nc2nc(Nc3ccc(N4CCOCC4)cc3)nc3[nH]cc(C(=O)c4ccc(F)cc4)c23)CC1 [Example 99] |  |  |  | IC50 [6, 7]: 0.76 µM |
| O=C(c1cc(F)cc(F)c1)c1c[nH]c2nc(Nc3ccc(N4CCOCC4)cc3)nc(N[C@H]3CC[C@H](CO)CC3)c12 [Example 101] |  |  |  | IC50 [6, 7]: 0.46 µM |
| CN1CCN(c2ccc(Nc3nc(N[C@H]4CC[C@@H](O)CC4)c4c(C(=O)c5ccc(F)cc5)c[nH]c4n3)cc2)CC1 [Example 55] | 10 to 100 nM | < 0.1 µM | 0.1 to 1 µM | IC50 [4]: 0.1 to 1 µM; IC50 [6, 8]: 0.1 to 1 µM; IC50 [5]: < 0.1 µM |
| Cn1cc(Nc2nc(N[C@@H]3CCCN(S(=O)(=O)C4CC4)C3)c3c(C(=O)c4ccc(F)cc4)c[nH]c3n2)cn1 [Example 4] |  |  |  | IC50 [6, 7]: 6.53 µM |
| CN1CCN(c2ccc(Nc3nc(N[C@@H]4CCCN(S(=O)(=O)C5CC5)C4)c4c(C(=O)c5ccc(F)cc5)c[nH]c4n3)cc2)CC1 [Example 3] |  |  |  | IC50 [6, 9]: 2.67 µM |
| CN1CCN(c2ccc(Nc3nc(NC4CCN(S(=O)(=O)C5CC5)CC4)c4c(C(=O)c5ccc(F)cc5)c[nH]c4n3)cc2)CC1 [Example 63] | 100 to 600 nM |  |  |  |
| COc1cc(N2CCN(C)CC2)ccc1Nc1nc(N[C@H]2CC[C@H](CO)CC2)c2c(C(=O)c3ccc(F)cc3)c[nH]c2n1 [Example 80] | 100 to 600 nM |  |  |  |
| CN1CCN(c2ccc(Nc3nc(N[C@@H]4CCOC4)c4c(C(=O)c5ccc(F)cc5)c[nH]c4n3)cc2)CC1 [Example 68] | 100 to 600 nM |  |  |  |
| O=C(c1ccc(F)cc1)c1c[nH]c2nc(Nc3ccc(N4CCOCC4)c(F)c3)nc(N[C@H]3CC[C@H](CO)CC3)c12 [Example 82] | 100 to 600 nM |  |  |  |
| COc1cc(N2CCN(C)CC2)ccc1Nc1nc(N[C@H]2CC[C@@H](CO)CC2)c2c(C(=O)c3ccc(F)cc3)c[nH]c2n1 [Example 106] | 10 to 100 nM | 0.1 to 1 µM | 1 to 2 µM |  |
| COc1cc(N2CCC(N3CCN(C)CC3)CC2)ccc1Nc1ncc(Cl)c(Nc2ccccc2P(C)(C)=O)n1 [Brigatinib, reference compound] |  |  |  | IC50 [6, 9]: 6.13 µM |
| C=CC(=O)Nc1cc(Nc2nccc(-c3cn(C)c4ccccc34)n2)c(OC)cc1N(C)CCN(C)C [Osimertinib, reference compound] |  | 1 to 2 µM | 1 to 2 µM | IC50 [6, 9]: 3.01 µM |
| CN1CCN(c2ccc(Nc3nc(N[C@H]4CC[C@@H](CO)CC4)c4c(C(=O)c5ccc(F)cc5)c[nH]c4n3)cc2F)CC1 [Example 103] | 10 to 100 nM | < 0.1 µM | 1 to 2 µM | IC50 [4]: 0.1 to 1 µM; IC50 [6, 8]: 0.1 to 1 µM; IC50 [5]: < 0.1 µM |
| CN1CCN(c2ccc(Nc3nc(N[C@H]4C=C[C@@H](CO)C4)c4c(C(=O)c5ccc(F)cc5)c[nH]c4n3)cc2)CC1 [Example 20] | 10 to 100 nM | 0.1 to 1 µM | 1 to 2 µM | IC50 [4]: 0.1 to 1 µM; IC50 [6, 8]: 0.1 to 1 µM; IC50 [5]: < 0.1 µM |
| CN1CCN(c2ccc(Nc3nc(N[C@@H]4CCCN(S(C)(=O)=O)C4)c4c(C(=O)c5ccc(F)cc5)c[nH]c4n3)cc2)CC1 [Example 50] | 100 to 600 nM |  |  |  |
| CN1CCN(c2ccc(Nc3nc(NCC4CCOCC4)c4c(C(=O)c5ccc(F)cc5)c[nH]c4n3)cc2)CC1 [Example 59] | 100 to 600 nM |  |  |  |
| CN1CCN(c2ccc(Nc3nc(N[C@H]4CCCN(S(=O)(=O)C5CC5)C4)c4c(C(=O)c5ccc(F)cc5)c[nH]c4n3)cc2)CC1 [Example 21] |  |  |  | IC50 [6, 7]: 0.61 µM |
| CN1CCN(c2ccc(Nc3nc(N[C@H]4CC[C@@H](N)CC4)c4c(C(=O)c5ccc(F)cc5)c[nH]c4n3)cc2)CC1 [Example 86] | < 10 nM | < 0.1 µM | 1 to 2 µM | IC50 [4]: 0.1 to 1 µM; IC50 [5]: < 0.1 µM |
| COc1nn(C)cc1Nc1nc(N[C@H]2CC[C@@H](CO)CC2)c2c(C(=O)c3ccc(F)cc3)c[nH]c2n1 [Example 116] | 10 to 100 nM | 0.1 to 1 µM | 1 to 2 µM | IC50 [4]: 0.1 to 1 µM; IC50 [6, 8]: 1 to 2 µM; IC50 [5]: < 0.1 µM |
| COc1cc(N2CCOCC2)ccc1Nc1nc(N[C@H]2CC[C@H](CO)CC2)c2c(C(=O)c3ccc(F)cc3)c[nH]c2n1 [Example 81] |  |  |  | IC50 [6, 7]: 0.92 µM |
| CN1CCN(c2ccc(Nc3nc(N[C@H]4CC[C@H](O)CC4)c4c(C(=O)c5ccc(F)cc5)c[nH]c4n3)cc2)CC1 [Example 56] | 10 to 100 nM | < 0.1 µM | 1 to 2 µM | IC50 [4]: 0.1 to 1 µM; IC50 [6, 8]: 0.1 to 1 µM; IC50 [5]: < 0.1 µM |
| Cc1ccc(C(=O)c2c[nH]c3nc(Nc4ccc(N5CCOCC5)cc4)nc(N[C@H]4CC[C@H](CO)CC4)c23)cc1 [Example 97] |  | 0.1 to 1 µM | 0.1 to 1 µM |  |
| CN1CCN(c2ccc(Nc3nc(N[C@@H]4CCCOC4)c4c(C(=O)c5ccc(F)cc5)c[nH]c4n3)cc2)CC1 [Example 58] | 100 to 600 nM |  |  |  |
| CN(C)CCOc1ccc(Nc2nc(N[C@H]3CC[C@@H](CO)CC3)c3c(C(=O)c4ccc(F)cc4)c[nH]c3n2)cc1 [Example 107] | 10 to 100 nM | 0.1 to 1 µM | 1 to 2 µM | IC50 [4]: 0.1 to 1 µM; IC50 [5]: < 0.1 µM |
